Results: ChEMBL document CHEMBL3632495, “Discovery of 1,1'-Biphenyl-4-sulfonamides as a New Class of Potent and Selective Carbonic Anhydrase XIV Inhibitors” (J Med Chem, 2015)

Tests used:
Carbonic anhydrase 9 = Carbonic anhydrase 9 (Homo sapiens, UniProt Q16790)
Description: Inhibition of human carbonic anhydrase-9 assessed as CO2 hydration activity by stopped-flow method

Carbonic anhydrase 1 = Carbonic anhydrase 1 (Homo sapiens, UniProt P00915)
Description: Inhibition of human carbonic anhydrase-1 assessed as CO2 hydration activity by stopped-flow method

Carbonic anhydrase 2 = Carbonic anhydrase 2 (Homo sapiens, UniProt P00918)
Description: Inhibition of human carbonic anhydrase-2 assessed as CO2 hydration activity by stopped-flow method

Carbonic anhydrase 12 = Carbonic anhydrase 12 (Homo sapiens, UniProt O43570)
Sequence of Carbonic anhydrase 12 (O43570 whole entry): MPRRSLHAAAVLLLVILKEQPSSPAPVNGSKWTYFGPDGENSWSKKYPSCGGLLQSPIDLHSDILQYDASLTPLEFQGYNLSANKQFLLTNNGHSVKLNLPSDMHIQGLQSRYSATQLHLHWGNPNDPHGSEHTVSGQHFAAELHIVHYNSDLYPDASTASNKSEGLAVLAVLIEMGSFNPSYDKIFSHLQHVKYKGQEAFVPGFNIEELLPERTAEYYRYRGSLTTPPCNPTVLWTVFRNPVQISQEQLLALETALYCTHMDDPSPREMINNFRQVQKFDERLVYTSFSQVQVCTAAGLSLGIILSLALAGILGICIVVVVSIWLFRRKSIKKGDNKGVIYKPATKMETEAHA
Description: Inhibition of human carbonic anhydrase-12 assessed as CO2 hydration activity by stopped-flow method

Sequence of Carbonic anhydrase 1 (P00915 whole entry): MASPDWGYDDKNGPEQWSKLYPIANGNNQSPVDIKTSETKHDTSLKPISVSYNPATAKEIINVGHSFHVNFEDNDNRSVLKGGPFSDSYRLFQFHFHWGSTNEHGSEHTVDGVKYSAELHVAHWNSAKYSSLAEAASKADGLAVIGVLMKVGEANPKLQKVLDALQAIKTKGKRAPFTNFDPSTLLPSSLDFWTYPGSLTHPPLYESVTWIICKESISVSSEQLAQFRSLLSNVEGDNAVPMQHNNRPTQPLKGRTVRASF

COC(=O)c1ccc(-c2ccc(S(N)(=O)=O)cc2)cc1
Ki (Carbonic anhydrase 9): 9.3 nM | Ki (Carbonic anhydrase 1): 77 nM | Ki (Carbonic anhydrase 2): 9 nM | Ki (Carbonic anhydrase 12): 35.2 nM

CC(C)(C)OC(=O)c1ccc(-c2ccc(S(N)(=O)=O)cc2)cc1
Ki (Carbonic anhydrase 1): 78.8 nM | Ki (Carbonic anhydrase 2): 42 nM | Ki (Carbonic anhydrase 12): 44.9 nM

NS(=O)(=O)c1ccc(-c2ccc(C(=O)O)cc2)cc1
Ki (Carbonic anhydrase 9): 3.6 nM | Ki (Carbonic anhydrase 1): 340 nM | Ki (Carbonic anhydrase 2): 6.2 nM | Ki (Carbonic anhydrase 12): 52.3 nM

NC(=O)c1ccc(-c2ccc(S(N)(=O)=O)cc2)cc1
Ki (Carbonic anhydrase 9): 823 nM | Ki (Carbonic anhydrase 1): 67.5 nM | Ki (Carbonic anhydrase 2): 5.3 nM | Ki (Carbonic anhydrase 12): 8.3 nM

NS(=O)(=O)c1ccc(-c2ccc(C(=O)NCCO)cc2)cc1
Ki (Carbonic anhydrase 1): 46.7 nM | Ki (Carbonic anhydrase 2): 11.5 nM | Ki (Carbonic anhydrase 12): 26.2 nM

NS(=O)(=O)c1ccc(-c2ccc([N+](=O)[O-])cc2)cc1
Ki (Carbonic anhydrase 9): 9.6 nM | Ki (Carbonic anhydrase 1): 62.2 nM | Ki (Carbonic anhydrase 2): 11.6 nM | Ki (Carbonic anhydrase 12): 7.4 nM

Nc1ccc(-c2ccc(S(N)(=O)=O)cc2)cc1
Ki (Carbonic anhydrase 1): 78.5 nM | Ki (Carbonic anhydrase 2): 9.1 nM | Ki (Carbonic anhydrase 12): 7.7 nM

NS(=O)(=O)c1ccc(-c2ccc(C(=O)c3ccccc3)cc2)cc1
Ki (Carbonic anhydrase 1): 1630 nM | Ki (Carbonic anhydrase 2): 4.3 nM | Ki (Carbonic anhydrase 12): 7.4 nM

NS(=O)(=O)c1ccc(-c2ccc(C(O)c3ccccc3)cc2)cc1 (stereo unspecified)
Ki (Carbonic anhydrase 9): 8.9 nM | Ki (Carbonic anhydrase 1): 52.7 nM | Ki (Carbonic anhydrase 2): 4.9 nM | Ki (Carbonic anhydrase 12): 81.1 nM

NS(=O)(=O)c1ccc(-c2ccc(Cc3ccccc3)cc2)cc1
Ki (Carbonic anhydrase 9): 519 nM | Ki (Carbonic anhydrase 1): 75.3 nM | Ki (Carbonic anhydrase 2): 454 nM | Ki (Carbonic anhydrase 12): 77.2 nM

COC(=O)c1ccc(C(=O)c2ccc(-c3ccc(S(N)(=O)=O)cc3)cc2)cc1
Ki (Carbonic anhydrase 9): 42.3 nM | Ki (Carbonic anhydrase 1): 73.8 nM | Ki (Carbonic anhydrase 2): 7.8 nM | Ki (Carbonic anhydrase 12): 7.3 nM

COC(=O)c1ccc(C(O)c2ccc(-c3ccc(S(N)(=O)=O)cc3)cc2)cc1 (stereo unspecified)
Ki (Carbonic anhydrase 1): 6.3 nM | Ki (Carbonic anhydrase 2): 6.6 nM | Ki (Carbonic anhydrase 12): 6.7 nM

COC(=O)c1ccc(Cc2ccc(-c3ccc(S(N)(=O)=O)cc3)cc2)cc1
Ki (Carbonic anhydrase 9): 76.7 nM | Ki (Carbonic anhydrase 1): 122 nM | Ki (Carbonic anhydrase 2): 50.6 nM | Ki (Carbonic anhydrase 12): 237 nM

NS(=O)(=O)c1ccc(-c2ccc(C(=O)c3ccc(C(=O)O)cc3)cc2)cc1
Ki (Carbonic anhydrase 9): 8.5 nM | Ki (Carbonic anhydrase 1): 263 nM | Ki (Carbonic anhydrase 2): 4.8 nM | Ki (Carbonic anhydrase 12): 45.5 nM

NS(=O)(=O)c1ccc(-c2ccc(C(O)c3ccc(C(=O)O)cc3)cc2)cc1 (stereo unspecified)
Ki (Carbonic anhydrase 9): 450 nM | Ki (Carbonic anhydrase 1): 72.5 nM | Ki (Carbonic anhydrase 2): 814 nM | Ki (Carbonic anhydrase 12): 93.9 nM

NS(=O)(=O)c1ccc(-c2ccc(Cc3ccc(C(=O)O)cc3)cc2)cc1
Ki (Carbonic anhydrase 9): 31.4 nM | Ki (Carbonic anhydrase 1): 236 nM | Ki (Carbonic anhydrase 2): 6.9 nM

NS(=O)(=O)c1ccc(-c2ccc(C(=O)c3ccc([N+](=O)[O-])cc3)cc2)cc1
Ki (Carbonic anhydrase 1): 80.1 nM | Ki (Carbonic anhydrase 2): 63.3 nM | Ki (Carbonic anhydrase 12): 70.6 nM

NS(=O)(=O)c1ccc(-c2ccc(C(O)c3ccc([N+](=O)[O-])cc3)cc2)cc1 (stereo unspecified)
Ki (Carbonic anhydrase 9): 678 nM | Ki (Carbonic anhydrase 2): 5.9 nM

NS(=O)(=O)c1ccc(-c2ccc(Cc3ccc([N+](=O)[O-])cc3)cc2)cc1
Ki (Carbonic anhydrase 9): 705 nM | Ki (Carbonic anhydrase 1): 70.5 nM | Ki (Carbonic anhydrase 2): 39.7 nM | Ki (Carbonic anhydrase 12): 9.3 nM

Nc1ccc(Cc2ccc(-c3ccc(S(N)(=O)=O)cc3)cc2)cc1
Ki (Carbonic anhydrase 9): 6 nM | Ki (Carbonic anhydrase 1): 589 nM | Ki (Carbonic anhydrase 2): 5.2 nM | Ki (Carbonic anhydrase 12): 8.1 nM
